From PubChem BioAssay (NCI)
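Exposure lasted 48 hours, with cells grown in 96-well plates and compounds tested at five concentrations. TGI denotes the concentration required for complete inhibition of growth.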

Assays:
Test in all cases: NCI anticancer screen, dose series, 48 h
HL-60(TB) leukemia = tested on: HL-60(TB) leukemia
K-562 leukemia = tested on: K-562 leukemia
NCI-H23 lung = tested on: NCI-H23 lung
TK-10 renal = tested on: TK-10 renal
M19-MEL melanoma = tested on: M19-MEL melanoma
HT29 colon = tested on: HT29 colon
OVCAR-5 ovarian = tested on: OVCAR-5 ovarian
ACHN renal = tested on: ACHN renal
HCT-116 colon = tested on: HCT-116 colon
OVCAR-8 ovarian = tested on: OVCAR-8 ovarian
UO-31 renal = tested on: UO-31 renal
HCT-15 colon = tested on: HCT-15 colon
OVCAR-3 ovarian = tested on: OVCAR-3 ovarian
SK-MEL-28 melanoma = tested on: SK-MEL-28 melanoma
SNB-78 CNS = tested on: SNB-78 CNS
OVCAR-4 ovarian = tested on: OVCAR-4 ovarian
EKVX NSCLC = tested on: EKVX NSCLC
SNB-75 CNS = tested on: SNB-75 CNS
SF-539 CNS = tested on: SF-539 CNS
IGROV1 ovarian = tested on: IGROV1 ovarian
SK-MEL-5 melanoma = tested on: SK-MEL-5 melanoma
SK-MEL-2 melanoma = tested on: SK-MEL-2 melanoma
SK-OV-3 ovarian = tested on: SK-OV-3 ovarian
SF-295 CNS = tested on: SF-295 CNS
UACC-62 melanoma = tested on: UACC-62 melanoma
CAKI-1 renal = tested on: CAKI-1 renal
SNB-19 CNS = tested on: SNB-19 CNS
M14 melanoma = tested on: M14 melanoma
SW-620 colon = tested on: SW-620 colon
A498 renal = tested on: A498 renal
NCI-H460 lung = tested on: NCI-H460 lung
LXFL 529 NSCLC = tested on: LXFL 529 NSCLC
HOP-18 NSCLC = tested on: HOP-18 NSCLC
NCI-H522 lung = tested on: NCI-H522 lung
RXF-631 renal = tested on: RXF-631 renal
MOLT-4 leukemia = tested on: MOLT-4 leukemia
HOP-62 NSCLC = tested on: HOP-62 NSCLC
HCC-2998 colon = tested on: HCC-2998 colon
DMS 273 small cell lung = tested on: DMS 273 small cell lung
786-0 renal = tested on: 786-0 renal
SR leukemia = tested on: SR leukemia
U251 CNS = tested on: U251 CNS
SF-268 CNS = tested on: SF-268 CNS
NCI-H226 lung = tested on: NCI-H226 lung
UACC-257 melanoma = tested on: UACC-257 melanoma
CCRF-CEM leukemia = tested on: CCRF-CEM leukemia
MALME-3M melanoma = tested on: MALME-3M melanoma
HOP-92 NSCLC = tested on: HOP-92 NSCLC
KM20L2 colon = tested on: KM20L2 colon
RPMI-8226 leukemia = tested on: RPMI-8226 leukemia
KM12 colon = tested on: KM12 colon
DMS 114 small cell lung = tested on: DMS 114 small cell lung
A549 NSCLC = tested on: A549 NSCLC
DLD-1 colon = tested on: DLD-1 colon
COLO 205 colon = tested on: COLO 205 colon
SN12C renal = tested on: SN12C renal
LOX IMVI melanoma = tested on: LOX IMVI melanoma
RXF 393 renal = tested on: RXF 393 renal

Which TGI (HL-60(TB) leukemia) does the source give for Cc1cc(N(CCC#N)CCC#N)ccc1/C=C1\N=C(c2cc([N+](=O)[O-])ccc2Cl)N(c2cccc(Cl)c2)C1=O here?
The TGI was > 100 µM.

And the TGI (K-562 leukemia)?
Its TGI is > 100 µM.

And the TGI (NCI-H23 lung)?
The TGI was > 100 µM.

And the TGI (TK-10 renal)?
The TGI was > 100 µM.

And the TGI (M19-MEL melanoma)?
The TGI was > 100 µM.

What about the TGI (HT29 colon) of the same molecule?
Its TGI is > 100 µM.

And the TGI (OVCAR-5 ovarian)?
Its TGI is > 100 µM.

And the TGI (ACHN renal)?
Its TGI is > 100 µM.

What about the TGI (HCT-116 colon) of the same molecule?
The TGI was > 100 µM.

What about the TGI (OVCAR-8 ovarian) of the same molecule?
Its TGI is > 100 µM.

What about the TGI (UO-31 renal) of the same molecule?
The TGI was > 100 µM.

And the TGI (HCT-15 colon)?
Its TGI is > 100 µM.

And the TGI (OVCAR-3 ovarian)?
Its TGI is > 100 µM.

And the TGI (SK-MEL-28 melanoma)?
Its TGI is > 100 µM.

And the TGI (SNB-78 CNS)?
Its TGI is > 100 µM.

What about the TGI (OVCAR-4 ovarian) of the same molecule?
Its TGI is > 100 µM.

What about the TGI (EKVX NSCLC) of the same molecule?
Its TGI is > 100 µM.

And the TGI (SNB-75 CNS)?
Its TGI is > 100 µM.

What about the TGI (SF-539 CNS) of the same molecule?
Its TGI is > 100 µM.

And the TGI (IGROV1 ovarian)?
The TGI was > 100 µM.

What about the TGI (SK-MEL-5 melanoma) of the same molecule?
Its TGI is > 100 µM.

And the TGI (SK-MEL-2 melanoma)?
Its TGI is > 100 µM.

And the TGI (SK-OV-3 ovarian)?
The TGI was > 100 µM.

And the TGI (SF-295 CNS)?
The TGI was > 100 µM.

And the TGI (UACC-62 melanoma)?
Its TGI is > 100 µM.

And the TGI (CAKI-1 renal)?
Its TGI is > 100 µM.

What about the TGI (SNB-19 CNS) of the same molecule?
Its TGI is > 100 µM.

What about the TGI (M14 melanoma) of the same molecule?
The TGI was > 100 µM.

What about the TGI (SW-620 colon) of the same molecule?
The TGI was > 100 µM.

And the TGI (A498 renal)?
Its TGI is > 100 µM.

What about the TGI (NCI-H460 lung) of the same molecule?
Its TGI is > 100 µM.

What about the TGI (LXFL 529 NSCLC) of the same molecule?
Its TGI is > 100 µM.

And the TGI (HOP-18 NSCLC)?
Its TGI is > 100 µM.

What about the TGI (NCI-H522 lung) of the same molecule?
The TGI was > 100 µM.

And the TGI (RXF-631 renal)?
The TGI was > 100 µM.

What about the TGI (MOLT-4 leukemia) of the same molecule?
Its TGI is > 100 µM.

What about the TGI (HOP-62 NSCLC) of the same molecule?
Its TGI is > 100 µM.

And the TGI (HCC-2998 colon)?
Its TGI is > 100 µM.

What about the TGI (DMS 273 small cell lung) of the same molecule?
Its TGI is > 100 µM.

And the TGI (786-0 renal)?
The TGI was > 100 µM.

What about the TGI (SR leukemia) of the same molecule?
Its TGI is > 100 µM.

What about the TGI (U251 CNS) of the same molecule?
Its TGI is > 100 µM.

What about the TGI (SF-268 CNS) of the same molecule?
The TGI was > 100 µM.

And the TGI (NCI-H226 lung)?
The TGI was > 100 µM.

And the TGI (UACC-257 melanoma)?
The TGI was > 100 µM.

What about the TGI (CCRF-CEM leukemia) of the same molecule?
The TGI was > 100 µM.

What about the TGI (MALME-3M melanoma) of the same molecule?
Its TGI is > 100 µM.

What about the TGI (HOP-92 NSCLC) of the same molecule?
Its TGI is > 100 µM.

What about the TGI (KM20L2 colon) of the same molecule?
The TGI was > 100 µM.

What about the TGI (RPMI-8226 leukemia) of the same molecule?
Its TGI is > 100 µM.

What about the TGI (KM12 colon) of the same molecule?
The TGI was > 100 µM.

What about the TGI (DMS 114 small cell lung) of the same molecule?
Its TGI is > 100 µM.

And the TGI (A549 NSCLC)?
Its TGI is > 100 µM.

And the TGI (DLD-1 colon)?
Its TGI is > 100 µM.

And the TGI (COLO 205 colon)?
Its TGI is > 100 µM.

And the TGI (SN12C renal)?
The TGI was > 100 µM.

NC(=S)N1N=C2c3ccccc3CC[C@@H]2[C@@H]1c1ccccc1 was tested. Which TGI (HL-60(TB) leukemia) did it give?
Its TGI is 10.5 µM.

And the TGI (K-562 leukemia)?
Its TGI is > 49.1 µM.

And the TGI (NCI-H23 lung)?
The TGI was 19 µM.

And the TGI (TK-10 renal)?
Its TGI is > 68 µM.

And the TGI (M19-MEL melanoma)?
Its TGI is 47.2 µM.

What about the TGI (HT29 colon) of the same molecule?
The TGI was 15.6 µM.

What about the TGI (OVCAR-5 ovarian) of the same molecule?
The TGI was 99.9 µM.

And the TGI (ACHN renal)?
Its TGI is > 88.9 µM.

What about the TGI (HCT-116 colon) of the same molecule?
The TGI was 19.1 µM.

And the TGI (OVCAR-8 ovarian)?
Its TGI is 72.3 µM.

What about the TGI (UO-31 renal) of the same molecule?
The TGI was > 94.6 µM.

And the TGI (HCT-15 colon)?
The TGI was 24.6 µM.

And the TGI (OVCAR-3 ovarian)?
The TGI was 12.7 µM.

What about the TGI (SNB-78 CNS) of the same molecule?
Its TGI is > 82 µM.

What about the TGI (OVCAR-4 ovarian) of the same molecule?
Its TGI is > 100 µM.

What about the TGI (EKVX NSCLC) of the same molecule?
The TGI was > 81.8 µM.

And the TGI (SNB-75 CNS)?
Its TGI is 35.6 µM.

And the TGI (SF-539 CNS)?
Its TGI is 22.3 µM.

And the TGI (IGROV1 ovarian)?
Its TGI is > 80.3 µM.

And the TGI (SK-MEL-5 melanoma)?
Its TGI is 27.1 µM.

And the TGI (SK-MEL-2 melanoma)?
The TGI was > 48.5 µM.

What about the TGI (SK-OV-3 ovarian) of the same molecule?
Its TGI is 33.9 µM.

And the TGI (SF-295 CNS)?
The TGI was > 42.2 µM.

What about the TGI (UACC-62 melanoma) of the same molecule?
Its TGI is 26.1 µM.

And the TGI (CAKI-1 renal)?
The TGI was 42.2 µM.

What about the TGI (SNB-19 CNS) of the same molecule?
The TGI was > 100 µM.

What about the TGI (M14 melanoma) of the same molecule?
The TGI was 31.1 µM.

And the TGI (SW-620 colon)?
Its TGI is > 59.3 µM.

And the TGI (A498 renal)?
The TGI was > 83.8 µM.

What about the TGI (NCI-H460 lung) of the same molecule?
Its TGI is > 42.2 µM.

What about the TGI (LXFL 529 NSCLC) of the same molecule?
Its TGI is 97.6 µM.

And the TGI (HOP-18 NSCLC)?
Its TGI is > 100 µM.

And the TGI (NCI-H522 lung)?
Its TGI is 4.53 µM.

And the TGI (RXF-631 renal)?
The TGI was > 100 µM.

And the TGI (MOLT-4 leukemia)?
The TGI was 48 µM.

What about the TGI (HOP-62 NSCLC) of the same molecule?
The TGI was > 59.1 µM.

And the TGI (HCC-2998 colon)?
The TGI was > 55.7 µM.

And the TGI (LOX IMVI melanoma)?
Its TGI is 20.1 µM.

What about the TGI (RXF 393 renal) of the same molecule?
The TGI was 41.5 µM.

And the TGI (DMS 273 small cell lung)?
Its TGI is 20.7 µM.

What about the TGI (786-0 renal) of the same molecule?
Its TGI is 50.5 µM.

And the TGI (SR leukemia)?
The TGI was 12.6 µM.

And the TGI (U251 CNS)?
The TGI was 21.6 µM.

What about the TGI (SF-268 CNS) of the same molecule?
The TGI was 49.5 µM.

And the TGI (NCI-H226 lung)?
Its TGI is 45.6 µM.

What about the TGI (UACC-257 melanoma) of the same molecule?
Its TGI is 56.3 µM.

What about the TGI (CCRF-CEM leukemia) of the same molecule?
The TGI was 62.3 µM.

What about the TGI (MALME-3M melanoma) of the same molecule?
Its TGI is 66.7 µM.

What about the TGI (HOP-92 NSCLC) of the same molecule?
Its TGI is 47.2 µM.

And the TGI (KM20L2 colon)?
Its TGI is 16.3 µM.

And the TGI (RPMI-8226 leukemia)?
The TGI was 32.9 µM.

What about the TGI (KM12 colon) of the same molecule?
The TGI was 31 µM.

And the TGI (DMS 114 small cell lung)?
Its TGI is 8.01 µM.

What about the TGI (A549 NSCLC) of the same molecule?
The TGI was > 60.2 µM.

And the TGI (DLD-1 colon)?
The TGI was > 86.4 µM.

What about the TGI (COLO 205 colon) of the same molecule?
The TGI was 16.8 µM.

What about the TGI (SN12C renal) of the same molecule?
The TGI was 17.3 µM.
